The record followed here is patent US7790885B2, “Process for preparing phenoxypyridine derivatives” (Eisai R&D Management Co., Ltd., priority 2006, dated 2010).

pIC50: −log10 of the molar value.

Assay [1] has as its target T1, HGFR (Homo sapiens, UniProt P08581). The experiment in a line: Inhibitory activity against the HGFR autophosphorylation using ELISA. The conditions noted are these: MKN-45 cells, test substance 1 hr, cell extract. The class given is cell-based. On the set-up: endogenous in cells; host or cells: MKN-45 human gastric cancer cells. The protocol:
Human gastric cancer cells (MKN-45) were suspended in a 1% FBS-containing RPMI1640 medium (purchased from Sigma). […] After the culture, from each well was removed the supernatant, followed by adding 0.05 ml of a 1% FBS-containing RPMI1640 medium. Then, the well was supplied with 0.05 ml of the test substance dissolved in dimethyl sulfoxide (diluted with a 1% FBS-containing RPMI1640 medium), followed by culturing in a 5% CO2 incubator (37° C.) for 1 hr. From each well was removed the supernatant, and each well was washed with 150 μl of PBS, followed by adding 100 μl of a lysis buffer (50 mM Hepes (pH 7.4), 150 mM NaCl, 10% (v/v) glycerol, 1% Triton X-100, 1.5 mM MgCl2, 1 mM EDTA (pH 8.0), 100 mM NaF, 1 mM PMSF, 10 μg/ml Aprotinin, 50 μg/ml Leupeptin, 1 μg/ml Pepstatin A and 1 mM Na3VO4). The plate was shaken at 4° C. for 1 hr to prepare the cell extract.
To a 96-well plate for ELISA (purchased from COSTAR, Production No. 3369) was added 50 μl of 60 mM bicarbonate buffer (pH 9.6) containing 50 μg/ml of an anti-phosphotyrosine antibody (PY20, purchased from Transduction Laboratory, Production No. P-11120). The plate was incubated at 4° C. overnight.
Each well of the plate prepared in 2. was washed three times with 200 μl of PBS, and supplied with 150 μl of 3% BSA/PBS, followed by incubating at room temperature for 2 hrs. Each well was washed three times with 200 μl of PBS, and supplied with 50 μl of the above cell extract, followed by incubating at 4° C. overnight. After the incubation, each well was washed three times with 250 μl of a washing solution (0.1% BSA, 20 mM Tris-HCl (pH 7.6), 137 mM NaCl, and 0.05% Tween-20), and supplied with 70 μl of anti-HGFR antibody (h-Met(C-12), purchased from Santa Cruz, Production No. sc-10) 2,000-fold diluted with a reaction solution (1% BSA, 20 mM Tris-HCl (pH 7.6), 137 mM NaCl and 0.05% Tween-20), followed by incubating at room temperature for 1 hr. The well was washed three times with 250 μl of the washing solution, and supplied with 70 μl of peroxidase-labelled anti-rabbit IgG antibody (purchased from Cell Signaling, Production No. 7074) 2,000-fold diluted with the reaction solution, followed by incubating at room temperature for 1 hr. […] Each well was supplied with 70 μl of 1 M phosphoric acid, and using the Plate Reader MTP-500 (Corona Electric), the absorbance of the well was instantly determined at a measurement wavelength of 450 nm. While defining the absorbance of a well supplied with the cell extract having no test substance as 100% HGFR autophosphorylation activity, and the absorbance of a well supplied with 50 μl of the lysis buffer as 0% HGFR autophosphorylation activity, the HGFR autophosphorylation activity (%) was calculated for each well.
(ELISA stands for enzyme-linked immunosorbent assay.)
Target sequence in this assay (P08581 25-1390): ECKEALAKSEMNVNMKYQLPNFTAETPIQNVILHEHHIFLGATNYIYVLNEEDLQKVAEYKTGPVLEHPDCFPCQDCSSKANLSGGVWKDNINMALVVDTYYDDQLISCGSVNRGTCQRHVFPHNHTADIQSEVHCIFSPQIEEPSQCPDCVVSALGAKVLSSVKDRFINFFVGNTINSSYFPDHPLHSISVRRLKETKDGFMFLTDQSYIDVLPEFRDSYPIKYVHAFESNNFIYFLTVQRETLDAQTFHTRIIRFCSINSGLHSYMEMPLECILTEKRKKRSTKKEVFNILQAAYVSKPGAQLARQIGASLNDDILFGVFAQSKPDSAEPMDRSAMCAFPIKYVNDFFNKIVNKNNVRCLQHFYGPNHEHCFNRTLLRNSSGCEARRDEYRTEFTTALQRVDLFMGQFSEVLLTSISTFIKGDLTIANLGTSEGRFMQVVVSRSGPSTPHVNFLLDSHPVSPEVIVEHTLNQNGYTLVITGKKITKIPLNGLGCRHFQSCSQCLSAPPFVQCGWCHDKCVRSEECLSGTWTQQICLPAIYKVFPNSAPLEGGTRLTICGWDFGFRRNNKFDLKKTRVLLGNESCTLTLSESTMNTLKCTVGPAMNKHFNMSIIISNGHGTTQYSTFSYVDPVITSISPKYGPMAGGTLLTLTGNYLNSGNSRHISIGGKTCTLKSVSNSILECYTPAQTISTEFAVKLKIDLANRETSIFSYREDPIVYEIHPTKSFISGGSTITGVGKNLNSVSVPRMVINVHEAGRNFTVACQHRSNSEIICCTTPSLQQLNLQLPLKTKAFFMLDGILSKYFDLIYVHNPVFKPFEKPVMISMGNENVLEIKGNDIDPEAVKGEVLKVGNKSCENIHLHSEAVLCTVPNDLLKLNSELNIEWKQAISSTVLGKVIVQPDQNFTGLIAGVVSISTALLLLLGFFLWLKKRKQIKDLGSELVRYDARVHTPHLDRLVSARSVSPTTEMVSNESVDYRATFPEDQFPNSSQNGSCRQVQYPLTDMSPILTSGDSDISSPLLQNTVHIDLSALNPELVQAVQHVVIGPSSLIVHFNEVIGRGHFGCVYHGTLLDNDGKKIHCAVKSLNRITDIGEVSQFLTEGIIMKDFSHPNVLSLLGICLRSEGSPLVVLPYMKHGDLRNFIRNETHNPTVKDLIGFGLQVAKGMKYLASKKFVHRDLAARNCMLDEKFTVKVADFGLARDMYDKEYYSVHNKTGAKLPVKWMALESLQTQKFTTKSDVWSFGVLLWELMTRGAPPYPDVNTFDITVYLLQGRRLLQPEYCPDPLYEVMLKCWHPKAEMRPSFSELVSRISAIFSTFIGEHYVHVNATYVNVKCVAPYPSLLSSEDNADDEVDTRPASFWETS

Assay [2] has as its system Human gastric cancer cells (MKN-45). The experiment in a line: Inhibitory activity against the proliferation of human gastric cancer cells (MKN-45). The class given is cell-based. The conditions noted are these: 72 h, read-out: IC50 (concentration necessary to inhibit the cell proliferation by 50%), MKN-45 cells, 1% FBS-containing RPMI1640, 3 days, Cell Counting Kit-8. The protocol: Human gastric cancer cells (MKN-45) were suspended in a 1% FBS-containing RPMI1640 medium (purchased from Sigma). The cell suspension (1×10^4 cells/ml) was added in a 96-well plate for cell culture (purchased from NUNC, Production No. 167008) at 0.1 ml/well, and then cultured in a 5% CO2 incubator (37° C.) overnight. After the culture, each well was supplied with 0.1 ml of a test substance diluted with a 1% FBS-containing RPMI1640 medium, followed by culturing in a 5% CO2 incubator (37° C.) for 3 days. After the culture, each well was supplied with 10 μl of Cell Counting Kit-8 (purchased from DOJINDO, Production No. 343-07623), followed by incubation in a 5% CO2 incubator (37° C.) for about 1.5 hrs. After the incubation, using the Plate Reader MTP-500 (Corona Electric), the absorbance of each well was determined at a measurement wavelength of 450 nm and a reference wavelength of 660 nm.

Assay [3] has as its target T1, HGFR. The experiment in a line: Inhibitory activity against HGFR tyrosine kinase activity (HTRF). The class given is biochemical. Set-up: His6-HGFR, the HGFR cytoplasmic domain fused with six histidine at the N terminus; made in house; host or cells: Sf9 insect cells (baculovirus, pFastBac-HT). The conditions noted are these: His6-HGFR cytoplasmic domain, biotin-poly(GT) substrate, ATP, 30° C. for 10 min. An excerpt:
The DNA fragment was isolated from the human placental cDNA library (purchased from Clontech) by PCR (TaKaRa Ex Taq™ Kit, purchased from TaKaRa) using two kinds of primers (SEQ ID NO: 1,5′-[…]-3′ and SEQ ID NO: 2,5′-[…]-3′, purchased from Invitrogen). The DNA fragment was cloned into a baculovirus transplace vector (pFastBac™-HT (purchased from GIBCO BRL)) to produce a recombinant construct. […] EGFR was purchased from Sigma (Production No. E-2645).
To the suspension of Sf9 cells (3×10^8 cells) in SF-900II medium (purchased from Invitrogen) containing 2% FBS was added a solution of HGFR transfected baculovirus above (4 ml), followed by a shaking culture at 27° C. for 48 hrs. The cells infected with the HGFR transfected baculovirus were centrifuged at 1,000 rpm, 4° C. for 5 min to remove the supernatant. The precipitated infected cells were suspended in 80 ml of ice-cold PBS, and centrifuged at 1,000 rpm, 4° C. for 5 min to remove the supernatant. The precipitated infected cells were suspended in 40 ml of ice-cold Lysis Buffer (50 mM Tris-HCl (pH 8.5), 5 mM 2-mercaptoethanol, 100 mM KCl, 1 mM PMSF and 1% (v/v) NP-40). The suspension was centrifuged at 12,000 rpm, 4° C. for 30 min to provide a supernatant.
The supernatant was loaded onto an Ni-NTA agarose column (3 ml, purchased from Qiagen) equilibrated with 30 ml of Buffer A (20 mM Tris-HCl (pH 8.5), 5 mM 2-mercaptoethanol, 500 mM KCl, 20 mM imidazole and 10% (v/v) glycerol). The column was washed with 30 ml of Buffer A, 6 ml of Buffer B (20 mM Tris-HCl (pH 8.5), 5 mM 2-mercaptoethanol, 1 M KCl, and 10% (v/v) glycerol) and 6 ml of Buffer A in this order. Then, the column was eluted with 6 ml of Buffer C (20 mM Tris-HCl (pH 8.5), 5 mM 2-mercaptoethanol, 100 mM KCl, 100 mM imidazole, and 10% (v/v) glycerol) to provide a fraction. The fraction was entrapped in a dialysis membrane (purchased from Spectrum Laboratories), dialyzed at 4° C. overnight with 1 L of dialysis buffer (20 mM Tris-HCl (pH 7.5), 10% (v/v) glycerol, 1 mM dithiothreitol, 0.1 mM Na3VO4 and 0.1 mM EGTA), and stored at −80° C. until used. […] The VEGFR2 cytoplasmic domain, the FGFR1 cytoplasmic domain, and the PDGFRβ cytoplasmic domain were fused with six histidine at the N terminus by the similar method to produce respective recombinant proteins (His6-VEGFR2, His6-FGFR1, and His6-PDGFRβ).
The tyrosine-phosphorylated biotin-poly(GT) was detected using the Homogenous Time-Resolved Fluorescence (HTRF) method (Analytical Biochemistry, 269, 94-104, 1999).
Target sequence in this assay (P08581 956-1390 limits assumed): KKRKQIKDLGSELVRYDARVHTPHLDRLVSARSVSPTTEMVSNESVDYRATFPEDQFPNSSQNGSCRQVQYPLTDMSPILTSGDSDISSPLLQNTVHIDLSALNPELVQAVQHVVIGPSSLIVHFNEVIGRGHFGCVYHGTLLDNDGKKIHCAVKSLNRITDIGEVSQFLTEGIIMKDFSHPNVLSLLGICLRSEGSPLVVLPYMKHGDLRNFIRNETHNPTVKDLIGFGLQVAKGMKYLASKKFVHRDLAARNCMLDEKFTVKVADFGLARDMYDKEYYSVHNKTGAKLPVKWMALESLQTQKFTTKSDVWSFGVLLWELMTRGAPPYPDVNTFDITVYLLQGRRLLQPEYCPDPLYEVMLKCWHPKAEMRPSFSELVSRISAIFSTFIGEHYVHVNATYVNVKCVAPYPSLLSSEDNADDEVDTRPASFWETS
(In general: Time-resolved FRET reads energy transfer from a long-lived donor to a nearby acceptor.)

Turning to `O=C(Nc1cc(Oc2cc(F)c(NC(=O)C3(C(=O)Nc4ccc(F)cc4)CC3)cc2F)ccn1)N1CC[C@@H](O)C1` [Example 25, N-{2,5-Difluoro-4-[(2-{[((R)-3-hydroxypyrrolidin-1-yl)carbonyl]amino}pyridin-4-yl)oxy]phenyl}-N′-(4-fluorophenyl)cyclopropane-1,1-dicarboxamide], the pIC50 on HGFR [1] is 8.47; in assay [2] it was 8.66; on HGFR [3], 8.00.

Turning to `O=C(Nc1cc(Oc2cc(F)c(NC(=O)C3(C(=O)Nc4ccc(F)cc4)CC3)cc2F)ccn1)N1CC[C@H](O)C1` [Example 22, N-{2,5-Difluoro-4-[(2-{[((S)-3-hydroxypyrrolidin-1-yl)carbonyl]amino}pyridin-4-yl)oxy]phenyl}-N′-(4-fluorophenyl)cyclopropane-1,1-dicarboxamide], the pIC50 against HGFR [1] was 8.35; in assay [2], 8.62; against HGFR [3], 7.80.

As to `O=C(Nc1cc(Oc2cc(F)c(NC(=O)C3(C(=O)Nc4ccc(F)cc4)CC3)cc2F)ccn1)N1CC(O)C1` [Example 16, N-{2,5-Difluoro-4-[(2-{[(3-hydroxyazetidin-1-yl)carbonyl]amino}pyridin-4-yl)oxy]phenyl}-N′-(4-fluorophenyl)cyclopropane-1,1-dicarboxamide], the values for the pIC50 (against HGFR [1]; in assay [2]; at HGFR [3]) were 8.08, 8.30 and 8.40, respectively.

For `CN1CCN(C2CCN(C(=O)Nc3cc(Oc4ccc(NC(=O)C5(C(=O)Nc6ccc(F)cc6)CC5)c(F)c4)ccn3)CC2)CC1` [Example 9, N-(2-Fluoro-4-{[2-({[4-(4-methylpiperazin-1-yl)piperidin-1-yl]carbonyl}amino)pyridin-4-yl]oxy}phenyl)-N′-(4-fluorophenyl)cyclopropane-1,1-dicarboxamide], the pIC50 in assay [2] was 7.77.

For `CN1CCC(N(C)C(=O)Nc2cc(Oc3cc(F)c(NC(=O)C4(C(=O)Nc5ccc(F)cc5)CC4)cc3F)ccn2)CC1` [Example 19], the pIC50 against HGFR [1] is 7.96; in assay [2], 8.31; against HGFR [3], 7.31.
